Reference: PMC10347550, “Cyclic Ruthenium-Peptide Conjugates as Integrin-Targeting Phototherapeutic Prodrugs for the Treatment of Brain Tumors” (Journal of the American Chemical Society, 2023)

Key:
U87MG cells = assay: 2D cytotoxicity assay, 24 h DLI & no wash, SRB endpoint; type: cell-based, human; details: normoxic 2D monolayer U87MG; for PI: mixture of Δ and Λ isomers (Figure S34a); for EC50: mixture of Δ and Λ isomers, green light 520 nm, 13.1 J/cm^2 (Figure S34a), read-out: EC50,light
Procedure: For each complex, two identical plates were prepared, one of which was irradiated with light, while the other was used as a dark control. […] Finally, at t = 96 h, 100 μL of cold trichloroacetic acid (10% w/v) was added to each well to fix the cells, and all plates were then transferred to a 4 °C refrigerator for 48 h before performing an SRB cell quantification endpoint assay.[72] Trichloroacetic acid was first removed and each plate was gently washed with demi water 3–5 times. Then, each well was dried in the air, and 100 μL of 0.6% SRB solution (0.6% w/v in 1% v/v acetic acid/H2O solution) was added into each well where it was allowed to stain for 30 min. Then, the plates were washed 3–5 times using an acetic acid solution (1% v/v). Once the plate was washed it was allowed to dry overnight. Then, 200 μL of 10 mM Tris base buffer was added to each well and the plate was allowed to sit on an orbital shaker for 0.5–16 h. After mixing, the absorbance of each well was determined by an M1000 Tecan Reader, reading at 510 nm. All experiments were conducted in independent biological triplicate. The obtained data were analyzed with Graphpad Prism 5 using the dose–response two-parameter Hill slope equation (eq 1) to obtain the half-maximal effective concentrations EC50 (defined as the concentration of drug that kills 50% of cells, compared to the untreated control). [drawing 1] 1

[1] = Nanoaggregation in Opti-MEM by DLS and TEM; type: physicochemical; details: 50 μM in Opti-MEM with 2.5% FCS, dark, 24 h (Figure S20)
Procedure: DLS was used to determine the distribution of particles in complex solutions (50 μM) in Opti-MEM (Gibco complete medium 11058-021, supplemented with 0.2% v/v penicillin/streptomycin (P/S), and 1% v/v glutamine) with or without 2.5% fetal calf serum (FCS) proteins via a ZEN1600 Zetasizer Nano instrument (Malvern Instruments Limited) operated with a 633 nm laser.
The TEM experiments were carried out with a TEM JEOL 1010:100 kV transmission electron microscope using a Formvar/carbon-coated copper grid (Polysciences Inc.). For the preparation of samples, a 1 mM stock aqua solution was diluted to 50 μM by Opti-MEM, after which, each drop (15 μL) of the complex solution was deposited on a parafilm (Bemis, HS234526C). The grids (Electron Microscopy Sciences, 71137) were placed on top of the drops for 5 min and then the excess liquid on the grid was removed with filter paper and air dried for 2 h for the TEM measurement. The TEM measurements were carried out under vacuum conditions.

[2] = Biodistribution of Ru by ICP-OES; type: in vivo, mice; details: for Ru content, Heart / Ru content, Kidney / Ru content, Liver / Ru content, Lung / Ru content, Spleen / Ru content, Tumor: U87MG tumor-bearing nude mice, ICP-OES, n = 3, ± SD
Procedure: (§1) All animal studies were approved by the Institutional Animal Care and Use Committee of the US National Institutes of Health and were performed according to the relevant guidelines (8th edition, 2011). Female BALB/c nude mice (6 weeks old) were purchased from Shanghai SLAC Laboratory Animal Co. LTD (Shanghai, China). Tumor-bearing mice were obtained by subcutaneously injecting U87MG tumor cells (2 × 10^6 cells per mouse, dispersed in 100 μL of FBS) into the right hind limb and waiting for 15 days until the tumor volume reached 50–100 mm^3.
The Blab/c nude mice bearing U87MG tumors were randomly assigned to two groups (N = 15) and received an intravenous injection of [1]Cl2 (7.7 mg/kg) or [2]Cl2 (5 mg/kg) at the same molar dose. Then, the mice were sacrificed at 2, 6, 12, 18, and 24 h post-injection (each time point contained 3 mice). The main organs (heart, liver, spleen, kidney, lung) and tumor tissue were dissected. Then, around 1 g of organs and tumors was lysed in a 7 mL mixture solution containing 5 mL of 65% HNO3 and 2 mL of 30% (w/w) H2O2 at 100 °C. After 12 h, all solutions had evaporated, and 5 mL of aqueous solution containing 2% HNO3 was added. The Ru content in all samples was measured by ICP-OES (JY-Horiba ICP-OES Ultima 2).

subcutaneous U87MG tumor = assay: In vivo tumor inhibition study; set-up: species or system mice; details: for TUNEL staining of tumor slices: day 7, combined with 520 nm laser irradiation; for effect of light irradiation on tumor growth, light group compared to dark group: single i.v. dose day 0 ([1]Cl2 7.7 mg/kg, [2]Cl2 5 mg/kg), 520 nm laser 60 J/cm^2 at DLI 12 h, tumor volume over 15 days
Procedure: as §1
The mice bearing U87MG solid tumors were first randomly divided into 6 groups (N = 5): PBS, light, [1]Cl2, [2]Cl2, [1]Cl2 + light, and [2]Cl2 + light. The injectable solution of [1]Cl2 or [2]Cl2 was obtained by diluting the stock solution of the compound in DMSO (10 mg/mL) 10 times by RPMI-1640 medium containing 10% FBS, 100 units/mL penicillin, and 100 μg/mL streptomycin. The injection doses of [1]Cl2 and [2]Cl2 were set as 7.7, 5 mg/kg, respectively (injection volume = 100 μL of the same molar weight of Ru in the last four groups). In groups 2, 5, and 6, laser irradiation (520 nm, 100 mW/cm^2, 5 min) was carried out twice at 12 h post-injection, with a 5 min interval. Accordingly, the total laser dose for each illumination was 100 mW/cm^2, 10 min, and 60 J/cm^2. Treatments in all groups were carried out only once on day 0. Digital photos of tumor-bearing mice, the tumor size (length and width, measured with a caliper), and mouse body weight in all groups were recorded every third day. The tumor volume was calculated according to the standard formula: 0.5 × length × width^2. Both the average tumor volume and body weight were followed for 15 days. On day 7, one mouse from each group was sacrificed and then the tumor tissue was dissected and fixed with 10% paraformaldehyde. The tumor cell damage and apoptosis and necrosis conditions were evaluated by H&E or TUNEL stained protocols. On day 15 (the end of the tumor treatment period), all nude mice were humanly sacrificed, and the main organs (heart, liver, spleen, kidney, and lung) and tumors were resected. Digital photographs of tumors in each group were immediately obtained. All normal tissues were fixed with 10% paraformaldehyde and further analyzed in accordance with the H&E staining protocol, to estimate their off-target side effect after various treatments.

[3] = 2 h after i.v. injection of [1]Cl2 7.7 mg/kg or [2]Cl2 5 mg/kg
[4] = 6 h after i.v. injection of [1]Cl2 7.7 mg/kg or [2]Cl2 5 mg/kg
[5] = 12 h after i.v. injection of [1]Cl2 7.7 mg/kg or [2]Cl2 5 mg/kg
[6] = 18 h after i.v. injection of [1]Cl2 7.7 mg/kg or [2]Cl2 5 mg/kg
[7] = 24 h after i.v. injection of [1]Cl2 7.7 mg/kg or [2]Cl2 5 mg/kg

CSCc1ccccn1.[Cl-].[Cl-].[Ru+2].c1ccc(-c2ccnc3c2ccc2c(-c4ccccc4)ccnc23)cc1.c1ccc(-c2ccnc3c2ccc2c(-c4ccccc4)ccnc23)cc1 [[2]Cl2, rac-[Ru(Ph2phen)2(mtmp)]Cl2, reference compound]
PI (U87MG cells): 6
EC50 (U87MG cells): 300 nM
nanoparticle formation (DLS) [1]: not
Ru content, Heart [2, 3]: 2.0 ± 0.3 %ID/g
Ru content, Kidney [2, 3]: 3.2 ± 0.4 %ID/g
Ru content, Liver [2, 3]: 40.5 ± 3.3 %ID/g
Ru content, Lung [2, 3]: 1.5 ± 0.3 %ID/g
Ru content, Spleen [2, 3]: 4.6 ± 0.4 %ID/g
Ru content, Tumor [2, 3]: 1.8 ± 0.3 %ID/g
Ru content, Heart [2, 4]: 1.9 ± 0.5 %ID/g
Ru content, Kidney [2, 4]: 2.0 ± 0.4 %ID/g
Ru content, Liver [2, 4]: 29.5 ± 1.9 %ID/g
Ru content, Lung [2, 4]: 1.6 ± 0.2 %ID/g
Ru content, Spleen [2, 4]: 2.2 ± 0.5 %ID/g
Ru content, Tumor [2, 4]: 6.5 ± 0.5 %ID/g
Ru content, Heart [2, 5]: 1.8 ± 0.3 %ID/g
Ru content, Kidney [2, 5]: 1.7 ± 0.2 %ID/g
Ru content, Liver [2, 5]: 16.3 ± 3.3 %ID/g
Ru content, Lung [2, 5]: 1.7 ± 0.2 %ID/g
Ru content, Spleen [2, 5]: 2.2 ± 0.3 %ID/g
Ru content, Tumor [2, 5]: 12.3 ± 1.5 %ID/g
Ru content, Heart [2, 6]: 1.7 ± 0.2 %ID/g
Ru content, Kidney [2, 6]: 1.9 ± 0.2 %ID/g
Ru content, Liver [2, 6]: 14.6 ± 2.3 %ID/g
Ru content, Lung [2, 6]: 1.7 ± 0.1 %ID/g
Ru content, Spleen [2, 6]: 1.6 ± 0.2 %ID/g
Ru content, Tumor [2, 6]: 2.8 ± 0.6 %ID/g
Ru content, Heart [2, 7]: 1.7 ± 0.2 %ID/g
Ru content, Kidney [2, 7]: 1.5 ± 0.1 %ID/g
Ru content, Liver [2, 7]: 7.3 ± 0.8 %ID/g
Ru content, Lung [2, 7]: 1.7 ± 0.1 %ID/g
Ru content, Spleen [2, 7]: 1.7 ± 0.2 %ID/g
Ru content, Tumor [2, 7]: 1.7 ± 0.1 %ID/g
TUNEL staining of tumor slices (subcutaneous U87MG tumor): induced outstanding apoptosis of tumor cells
effect of light irradiation on tumor growth, light group compared to dark group (subcutaneous U87MG tumor; n = 5): statistically nonsignificant

[Ru(Ph2phen)2(κ^S,κ^N-(Ac-MRGDH-NH2))]Cl2 (sidechain bridge or staple) [[1]Cl2, mixture of diastereoisomers used for the in vivo study]
PI (U87MG cells): 16
EC50 (U87MG cells): 2400 nM
Ru content, Heart [2, 3]: 2.2 ± 0.4 %ID/g
Ru content, Kidney [2, 3]: 3.2 ± 0.3 %ID/g
Ru content, Liver [2, 3]: 40.2 ± 2.8 %ID/g
Ru content, Lung [2, 3]: 1.5 ± 0.2 %ID/g
Ru content, Spleen [2, 3]: 1.9 ± 0.1 %ID/g
Ru content, Tumor [2, 3]: 2.0 ± 0.5 %ID/g
Ru content, Heart [2, 4]: 1.8 ± 0.3 %ID/g
Ru content, Kidney [2, 4]: 2.0 ± 0.2 %ID/g
Ru content, Liver [2, 4]: 29.0 ± 1.6 %ID/g
Ru content, Lung [2, 4]: 1.6 ± 0.2 %ID/g
Ru content, Spleen [2, 4]: 2.1 ± 0.5 %ID/g
Ru content, Tumor [2, 4]: 7.3 ± 0.4 %ID/g
Ru content, Heart [2, 5]: 1.8 ± 0.2 %ID/g
Ru content, Kidney [2, 5]: 1.7 ± 0.3 %ID/g
Ru content, Liver [2, 5]: 16.5 ± 3.5 %ID/g
Ru content, Lung [2, 5]: 1.6 ± 0.2 %ID/g
Ru content, Spleen [2, 5]: 2.2 ± 0.4 %ID/g
Ru content, Tumor [2, 5]: 15.7 ± 1.3 %ID/g
amount of ruthenium in the tumor higher than for the group treated with [2]Cl2 ([2]; 12 h after i.v. injection, same molar dose, P < 0.01): 28%
Ru content, Heart [2, 6]: 1.9 ± 0.2 %ID/g
Ru content, Kidney [2, 6]: 1.9 ± 0.2 %ID/g
Ru content, Liver [2, 6]: 14.4 ± 4.3 %ID/g
Ru content, Lung [2, 6]: 1.8 ± 0.3 %ID/g
Ru content, Spleen [2, 6]: 1.9 ± 0.3 %ID/g
Ru content, Tumor [2, 6]: 7.2 ± 0.5 %ID/g
Ru content, Heart [2, 7]: 1.8 ± 0.1 %ID/g
Ru content, Kidney [2, 7]: 1.8 ± 0.2 %ID/g
Ru content, Liver [2, 7]: 6.1 ± 1.2 %ID/g
Ru content, Lung [2, 7]: 1.7 ± 0.2 %ID/g
Ru content, Spleen [2, 7]: 1.7 ± 0.2 %ID/g
Ru content, Tumor [2, 7]: 4.1 ± 1.0 %ID/g
TUNEL staining of tumor slices (subcutaneous U87MG tumor): induced outstanding apoptosis of tumor cells
antitumor efficiency compared to [2]Cl2 + light (subcutaneous U87MG tumor; single i.v. dose 7.7 mg/kg + 520 nm laser 60 J/cm^2 at DLI 12 h, 15 days, n = 5): better antitumor efficiency
effect of light irradiation on tumor growth, light group compared to dark group (subcutaneous U87MG tumor; n = 5): much stronger tumor growth suppression
